Common to all, as to type: functional
Experiment [1] is described as follows: HeLa cell cytotoxicity, dose response, cytotoxicity control for MgcRacGAP inhibitor project (AID 624300).
Experiment [2] deals with Vero. The experiment is described as follows: West Nile virus antiviral activity, cell-based, CPE readout (AID 1621). The following applies: Chlorocebus sabaeus.
Experiment [3] addresses T1, High affinity choline transporter 1 (Homo sapiens, UniProt Q9GZV3).
T1 sequence (Q9GZV3 whole entry): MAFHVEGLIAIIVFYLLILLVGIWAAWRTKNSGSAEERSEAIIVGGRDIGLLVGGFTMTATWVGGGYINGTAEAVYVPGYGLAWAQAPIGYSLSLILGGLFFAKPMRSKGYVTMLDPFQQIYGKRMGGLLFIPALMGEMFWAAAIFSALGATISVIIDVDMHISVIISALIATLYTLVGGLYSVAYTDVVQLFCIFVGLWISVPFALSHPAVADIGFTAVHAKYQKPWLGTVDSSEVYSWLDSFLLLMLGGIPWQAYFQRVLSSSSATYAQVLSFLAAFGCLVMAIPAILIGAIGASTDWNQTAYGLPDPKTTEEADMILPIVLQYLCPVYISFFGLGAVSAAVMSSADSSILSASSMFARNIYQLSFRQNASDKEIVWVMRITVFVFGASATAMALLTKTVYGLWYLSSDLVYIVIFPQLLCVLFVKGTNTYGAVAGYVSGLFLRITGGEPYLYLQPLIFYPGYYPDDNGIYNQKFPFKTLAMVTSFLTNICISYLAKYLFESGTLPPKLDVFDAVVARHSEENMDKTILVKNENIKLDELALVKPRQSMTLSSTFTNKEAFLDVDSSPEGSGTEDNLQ
The experiment is described as follows: CHT inhibitors, dose response, cell-based, 10-point CRC, membrane potential dye (AID 588401).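 Further: membrane potential dye fluorescence of choline-evoked depolarization via CHT.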

In experiment [4] the target is T1, High affinity choline transporter 1. The experiment is described as follows: CHT inhibitors, dose response, cell-based, 5-point CRC, membrane potential dye (AID 504840).
For experiment [5], the target named is T2, Rac GTPase-activating protein 1 (Homo sapiens, UniProt Q9H0H5).
T2 sequence (Q9H0H5 whole entry): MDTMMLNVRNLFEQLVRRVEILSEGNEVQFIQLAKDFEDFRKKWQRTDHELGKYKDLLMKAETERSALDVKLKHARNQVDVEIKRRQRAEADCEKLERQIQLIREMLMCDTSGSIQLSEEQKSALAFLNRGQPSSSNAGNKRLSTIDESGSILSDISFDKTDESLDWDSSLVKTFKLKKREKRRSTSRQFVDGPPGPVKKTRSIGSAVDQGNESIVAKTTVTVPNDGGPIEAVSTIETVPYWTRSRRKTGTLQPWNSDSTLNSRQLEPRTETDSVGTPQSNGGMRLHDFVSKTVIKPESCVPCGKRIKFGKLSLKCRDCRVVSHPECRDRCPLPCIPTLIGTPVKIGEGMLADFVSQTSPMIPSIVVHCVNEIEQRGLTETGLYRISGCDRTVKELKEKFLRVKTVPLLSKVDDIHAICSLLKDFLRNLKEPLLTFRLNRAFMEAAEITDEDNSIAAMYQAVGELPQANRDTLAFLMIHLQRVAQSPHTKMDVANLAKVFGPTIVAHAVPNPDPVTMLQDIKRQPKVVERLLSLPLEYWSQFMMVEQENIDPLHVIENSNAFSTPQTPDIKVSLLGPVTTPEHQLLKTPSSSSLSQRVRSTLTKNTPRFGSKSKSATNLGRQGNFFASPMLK
Put plainly: MgcRacGAP GTPase-activating activity inhibitors, confirmation, biochemical, ADP Hunter fluorescence, primary and confirmatory (AID 624330).

A short description of experiment [6]: SAR analysis of small molecule activators of Apaf-1 using a LZ-Caspase-9/Caspase-3 Fluorescent Selectivity assay - Set 2. Conditions: read-out: EC50_Mean.
Experiment [7] concerns the target T3, Apoptotic protease-activating factor 1 (Homo sapiens, UniProt O14727).
T3 sequence (O14727 whole entry): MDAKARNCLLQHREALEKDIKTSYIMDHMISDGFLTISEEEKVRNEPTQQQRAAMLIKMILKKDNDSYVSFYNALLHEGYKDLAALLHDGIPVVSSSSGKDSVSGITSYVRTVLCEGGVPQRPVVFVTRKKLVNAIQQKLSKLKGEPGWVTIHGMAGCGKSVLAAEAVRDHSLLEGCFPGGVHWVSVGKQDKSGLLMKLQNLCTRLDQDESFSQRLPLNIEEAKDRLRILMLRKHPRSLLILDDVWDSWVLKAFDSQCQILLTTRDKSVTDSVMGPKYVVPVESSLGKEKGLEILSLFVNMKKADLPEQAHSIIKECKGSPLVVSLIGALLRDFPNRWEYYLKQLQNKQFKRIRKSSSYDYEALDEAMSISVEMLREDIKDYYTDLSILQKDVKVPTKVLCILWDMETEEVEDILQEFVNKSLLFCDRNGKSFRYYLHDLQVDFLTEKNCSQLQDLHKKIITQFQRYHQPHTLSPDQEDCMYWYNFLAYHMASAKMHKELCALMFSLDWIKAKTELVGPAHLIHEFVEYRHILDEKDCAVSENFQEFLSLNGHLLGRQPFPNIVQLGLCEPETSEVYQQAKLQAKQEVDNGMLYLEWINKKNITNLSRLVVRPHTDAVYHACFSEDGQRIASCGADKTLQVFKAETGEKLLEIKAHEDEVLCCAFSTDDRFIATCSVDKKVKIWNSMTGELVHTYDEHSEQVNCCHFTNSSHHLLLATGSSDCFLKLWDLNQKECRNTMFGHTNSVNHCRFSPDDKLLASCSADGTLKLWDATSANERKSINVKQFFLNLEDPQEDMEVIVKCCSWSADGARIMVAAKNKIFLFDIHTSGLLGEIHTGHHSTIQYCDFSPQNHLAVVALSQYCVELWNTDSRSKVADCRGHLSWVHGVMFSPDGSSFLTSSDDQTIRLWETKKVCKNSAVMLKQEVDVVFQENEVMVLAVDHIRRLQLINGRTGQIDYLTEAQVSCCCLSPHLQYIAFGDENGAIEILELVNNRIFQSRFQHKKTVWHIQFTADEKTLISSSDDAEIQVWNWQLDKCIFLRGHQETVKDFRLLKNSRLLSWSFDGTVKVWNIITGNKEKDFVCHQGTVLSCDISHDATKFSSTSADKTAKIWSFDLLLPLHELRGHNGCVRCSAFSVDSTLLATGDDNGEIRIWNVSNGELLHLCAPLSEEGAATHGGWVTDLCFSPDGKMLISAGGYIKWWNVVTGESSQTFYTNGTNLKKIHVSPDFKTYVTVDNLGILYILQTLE
Put plainly: SAR analysis of small molecule Activators of Apaf-1 in a Fluorescent assay - set 2. Conditions: read-out: EC50_Mean.

Active and inactive are the calls of the source.

In general, CC50 refers to the concentration giving 50% cytotoxicity. By IC50 is commonly meant the concentration needed to halve the response being measured. Consider `CCN(CC)CCCC(C)NC(=O)c1c(NC(=O)c2ccccc2)sc2c1CCCC2` (configuration not stated), for which the CC50 in experiment [1] is 100 µM (active). The IC50 was 21.4 µM (active) in experiment [2], 3.36 µM (active) in experiment [3], 2.41 µM (active) in experiment [4] and 144 µM (active) in experiment [5].
As to `COc1ccccc1C1=NOC(C(=O)O)C1` (configuration not stated), the EC50 in experiment [6] and in experiment [7] was > 100 µM (inactive) throughout.

The values above are taken from ChEMBL document CHEMBL1201862, “PubChem BioAssay data set” (2004).
